Measurements reported in patent publication US7713994B2 (Wyeth LLC, priority 2005, dated 2010).
Like-named read-outs stand apart in the source and are kept apart here.

What was measured:
[1] = target: T1, cyclin D1/cdk 4 enzyme (Homo sapiens, UniProt P11802); assay: CDK4 ELISA kinase assay (phospho-Rb ser 795 detection); type: biochemical
T1 construct: made in house; host or cells: Sf9 insect cells, recombinant baculovirus
Method in brief: (§1)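 Partially purified Sf9-expressed cyclin D1/CDK4, cyclin E/CDK2 or cyclin B/CDK1 phosphorylated plate-bound GST-Rb C-terminal fragment with 200 μM ATP at 30° C for 1 h.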

[2] = target: T2, cyclin E/CDK2 enzyme (Homo sapiens, UniProt P24941); assay: CDK2 ELISA kinase assay (phospho-Rb ser 795 detection); type: biochemical
T2 construct: made in house; host or cells: Sf9 insect cells, recombinant baculovirus
Method in brief: as §1

[3] = target: T3, cyclin B/CDK1 enzyme (Homo sapiens, UniProt P06493); assay: CDK1 ELISA kinase assay (phospho-Rb ser 795 detection); type: biochemical
T3 construct: purchased New England BioLabs; host or cells: Sf9 insect cells, recombinant baculovirus
T3 sequence (P06493 whole entry): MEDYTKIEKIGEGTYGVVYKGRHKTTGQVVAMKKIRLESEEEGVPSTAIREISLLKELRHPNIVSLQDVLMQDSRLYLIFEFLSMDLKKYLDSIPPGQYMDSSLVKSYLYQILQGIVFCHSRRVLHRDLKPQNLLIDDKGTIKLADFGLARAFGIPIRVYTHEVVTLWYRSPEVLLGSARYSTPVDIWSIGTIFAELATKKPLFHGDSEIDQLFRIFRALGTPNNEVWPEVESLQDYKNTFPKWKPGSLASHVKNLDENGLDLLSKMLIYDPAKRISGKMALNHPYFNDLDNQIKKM
T3 sequence (P14635 whole entry partner): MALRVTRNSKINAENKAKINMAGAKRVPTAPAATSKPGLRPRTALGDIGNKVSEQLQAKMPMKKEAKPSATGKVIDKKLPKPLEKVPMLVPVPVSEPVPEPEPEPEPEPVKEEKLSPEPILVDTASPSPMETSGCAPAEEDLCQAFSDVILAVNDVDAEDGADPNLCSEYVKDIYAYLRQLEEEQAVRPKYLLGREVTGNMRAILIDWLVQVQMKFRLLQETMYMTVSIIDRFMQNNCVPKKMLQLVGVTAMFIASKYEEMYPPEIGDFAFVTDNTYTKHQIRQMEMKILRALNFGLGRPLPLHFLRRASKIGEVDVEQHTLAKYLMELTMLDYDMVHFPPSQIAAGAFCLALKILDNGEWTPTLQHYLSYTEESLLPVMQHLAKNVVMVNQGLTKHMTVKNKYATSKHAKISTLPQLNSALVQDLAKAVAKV
Method in brief: as §1

[4] = tested on: BT474; assay: Cytotoxicity assay (SRB), BT474; type: cell-based
Method in brief: (§2)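 Overnight-seeded monolayers (4000–12000 cells/well by line) receive compound in 5% FBS medium at 37 °C, 7% CO2. After 3 d, or 6 d for BT474, cellular protein is fixed with cold TCA, stained with SRB and read at 540 nm against untreated wells.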

[5] = tested on: HCT-116; assay: Cytotoxicity assay (SRB), HCT-116; type: cell-based; conditions: Homo sapiens, HCT-116, 72 h, HCT116 cells, SRB, read-out: In Vitro Cellular Activity IC50 HCT116
Method in brief: as §2

[6] = tested on: LoVo; assay: Cytotoxicity assay (SRB), LoVo; type: cell-based; conditions: Homo sapiens, LoVo, 72 h, LoVo cells, SRB, read-out: In Vitro Cellular Activity IC50 LOVO
Method in brief: as §2

[7] = tested on: MCF-7; assay: Cytotoxicity assay (SRB), MCF-7; type: cell-based; conditions: Homo sapiens, MCF7, 72 h, MCF-7 cells, SRB, read-out: In Vitro Cellular Activity IC50 MCF-7
Method in brief: as §2

[8] = In Vitro Enzyme Assay, cyclin D1/cdk 4, read-out: CDK4 IC50
[9] = In Vitro Enzyme Assay, cyclin E/CDK2, read-out: CDK2 IC50
[10] = In Vitro Enzyme Assay, cyclin B/CDK1, read-out: CDK1 IC50
[11] = Homo sapiens, BT-474, 144 h, BT474 cells, 6 days, SRB; read-out: In Vitro Cellular Activity IC50 BT474
[12] = In Vitro Enzyme Assays, 200 μM ATP, read-out: CDK4 IC50
[13] = In Vitro Enzyme Assays, read-out: CDK2 IC50
[14] = In Vitro Enzyme Assays, read-out: CDK1 IC50
[15] = Homo sapiens, BT-474, 144 h, BT474 cells, SRB, 6 days; read-out: In Vitro Cellular Activity IC50 BT474

T1 sequence (P11802 whole entry, species assumed): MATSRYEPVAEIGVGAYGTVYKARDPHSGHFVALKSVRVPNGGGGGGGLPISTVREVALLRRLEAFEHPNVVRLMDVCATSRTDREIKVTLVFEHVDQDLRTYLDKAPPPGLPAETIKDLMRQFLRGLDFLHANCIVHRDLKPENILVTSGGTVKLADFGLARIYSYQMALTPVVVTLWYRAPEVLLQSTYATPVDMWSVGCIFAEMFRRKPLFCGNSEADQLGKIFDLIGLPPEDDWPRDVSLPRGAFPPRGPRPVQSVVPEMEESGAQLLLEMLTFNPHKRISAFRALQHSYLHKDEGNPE
T1 sequence (P24385 whole entry partner, species assumed): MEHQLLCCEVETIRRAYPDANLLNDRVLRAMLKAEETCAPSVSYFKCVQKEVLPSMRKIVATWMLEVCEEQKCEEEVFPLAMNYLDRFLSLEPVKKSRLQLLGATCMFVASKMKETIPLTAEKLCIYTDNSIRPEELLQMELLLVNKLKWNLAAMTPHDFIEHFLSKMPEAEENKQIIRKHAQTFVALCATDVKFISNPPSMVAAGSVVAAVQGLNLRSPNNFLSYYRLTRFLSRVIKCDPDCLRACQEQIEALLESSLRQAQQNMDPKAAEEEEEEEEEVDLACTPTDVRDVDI

O=C1NC(=O)c2ccc(I)cc2/C1=C/NCc1ccc(-c2ccc(F)cc2)c(O)c1 [Example 500, 4-{[(4′-Fluoro-2-hydroxy-biphenyl-4-ylmethyl)-amino]-methylene}-6-iodo-4H-isoquinoline-1,3-dione]
IC50 [1, 8]: 0.14 µM
IC50 [2, 9]: 15.1 µM
IC50 [3, 10]: 43.4 µM
IC50 [4, 11]: 2.3 µM
IC50 ([5]; 3 days): 1.9 µM
IC50 ([6]; 3 days): 1.8 µM
IC50 ([7]; 3 days): 3.8 µM

O=C1NCc2cc(Br)ccc2C1=CNc1ccc(CCO)cc1 [Example 863, 7-Bromo-4-{[4-(2-hydroxy-ethyl)-phenylamino]-methylene}-1,4-dihydro-2H-isoquinolin-3-one]
IC50 [1, 8]: 20.1 µM
IC50 [2, 9]: 18 µM
IC50 [3, 10]: 37.1 µM
IC50 [4, 11]: 31.1 µM
IC50 ([5]; 3 days): 11.2 µM
IC50 ([6]; 3 days): 10.2 µM
IC50 ([7]; 3 days): 16.3 µM

C=CC(=O)Nc1ccc2c(c1)/C(=C/Nc1ccc(N3CCN(C)CC3)cc1)C(=O)NC2=O [Example 385, N-[(4Z)-4-({[4-(4-Methylpiperazin-1-yl)phenyl]amino}methylene)-1,3-dioxo-1,2,3,4-tetrahydroisoquinolin-6-yl]acrylamide]
IC50 [1, 12]: 14.7 µM
IC50 [2, 13]: 20.7 µM
IC50 [3, 14]: 11.5 µM
IC50 [4, 15]: 0.39 µM
IC50 ([5]; three days): 1.4 µM
IC50 ([6]; three days): 3.5 µM
IC50 ([7]; three days): 1.6 µM

COc1ccc(CNC=C2C(=O)NC(=O)c3ccc(-c4ccccc4)cc32)cc1O [Example 832, 4-[(3-Hydroxy-4-methoxy-benzylamino)-methylene]-6-phenyl-4H-isoquinoline-1,3-dione]
IC50 [1, 8]: 0.01 µM
IC50 [2, 9]: 25.9 µM
IC50 [3, 10]: 34.7 µM
IC50 [4, 11]: 14.9 µM
IC50 ([5]; 3 days): 9.9 µM
IC50 ([6]; 3 days): 8.5 µM
IC50 ([7]; 3 days): 11.8 µM

COC1CCN(Cc2ccc(N/C=C3\C(=O)NC(=O)c4ccc(Br)cc43)cc2)CC1 [Example 397, (4Z)-6-Bromo-4-[({4-[(4-methoxypiperidin-1-yl)methyl]phenyl}amino)methylene]isoquinoline-1,3(2H,4H)-dione]
IC50 [1, 12]: 0.19 µM
IC50 [2, 13]: > 50 µM
IC50 [3, 14]: > 50 µM
IC50 [4, 11]: 6.18 µM
IC50 ([5]; 3 days): 2.8 µM
IC50 ([6]; 3 days): 4.3 µM
IC50 ([7]; 3 days): 3.6 µM

O=C1NC(=O)c2ccc(-c3cc4ccccc4s3)cc2C1=CNCc1ccc(O)c(O)c1 [Example 644, 6-Benzo[b]thiophen-2-yl-4-[(3,4-dihydroxy-benzylamino)-methylene]-4H-isoquinoline-1,3-dione]
IC50 [1, 8]: 2 µM
IC50 [2, 9]: > 50 µM
IC50 [3, 10]: > 50 µM
IC50 [4, 11]: 17.9 µM
IC50 ([5]; 3 days): 14.1 µM
IC50 ([6]; 3 days): 19.1 µM
IC50 ([7]; 3 days): 6.3 µM

Nc1cccc(-c2ccc3c(c2)C(=CNCc2ccc(O)c(O)c2)C(=O)NC3=O)c1 [Example 821, 6-(3-Amino-phenyl)-4-[(3,4-dihydroxy-benzylamino)-methylene]-4H-isoquinoline-1,3-dione]
IC50 [1, 8]: 0.14 µM
IC50 [2, 9]: 20.7 µM
IC50 [3, 10]: 24.2 µM
IC50 [4, 11]: 25.1 µM
IC50 ([5]; 3 days): 35.9 µM
IC50 ([6]; 3 days): 50.1 µM
IC50 ([7]; 3 days): 27.2 µM

CN(C)CCCN(C)c1ccc(N/C=C2\C(=O)NC(=O)c3ccc(Br)cc32)cc1 [Example 275, (4Z)-6-Bromo-4-[({4-[[3-(dimethylamino)propyl](methyl)amino]phenyl}amino)methylene]isoquinoline-1,3(2H,4H)-dione]
IC50 [1, 12]: 14.4 µM
IC50 [2, 13]: > 50 µM
IC50 [3, 14]: > 50 µM
IC50 [4, 15]: 10 µM
IC50 ([5]; three days): 4.2 µM
IC50 ([6]; three days): 8.6 µM
IC50 ([7]; three days): 5.3 µM

CC(O)C1CCCN1Cc1ccc(N/C=C2\C(=O)NC(=O)c3ccc(I)cc32)cc1 (single isomer, unassigned) [Example 374, 4-({4-[2-(1-Hydroxy-ethyl)-pyrrolidin-1-ylmethyl]-phenylamino}-methylene)-6-iodo-4H-isoquinoline-1,3-dione]
IC50 [1, 12]: 1.3 µM
IC50 [2, 13]: 37.1 µM
IC50 [3, 14]: > 50 µM
IC50 [4, 15]: 0.46 µM
IC50 ([5]; three days): 3.2 µM
IC50 ([6]; three days): 3.8 µM
IC50 ([7]; three days): 1 µM
